Assay results: patent publication US20050136492A1, “Affinity labeling of enzymes for detection of enzyme activity level in living cells” (priority 2001, published 2005)
Where “and” joins values, the source holds several entries; their conditions need not be identical. Identical values can stand only once.

Legend:
HL-60 cells [1] = experiment: Labeling of CPT-treated HL-60 cells with FLISP (FFCK, FLCK) and FLICA (FAM-VAD-FMK, SR-VAD-FMK) reagents, by LSC or fluorescence microscopy; type: cell-based, Human; conditions: for binding of the ligand by cells treated with CPT vs untreated (control) cells: HL-60, 3 h CPT, combined with PI; for fluorescence of labeled cells (appearance): dual labeling with SR-VAD-FMK, CPT-treated HL-60, microscopy/LSC imaging
Method: (§1) Preparation of reagents: Fluorescent inhibitors of serine proteases (FLISP) reagents, 5(6)-Carboxyfluoresceinyl-L-phenylalanylchloromethyl ketone (FFCK) and 5(6)-carboxyfluoresceinyl-L-leucylchloromethyl ketone (FLCK) were dissolved initially in dimethyl sulfoxide (DMSO; Sigma) to yield a 10 mM concentration. Aliquots were made from this stock solution and stored frozen at −20° C. protected from light. This reagent stock was then diluted directly into the cell culture media to give a 1× working reagent concentration of 10 μM. Dilution of the reagent into aqueous (cell culture) media is done just prior to cell exposure to preserve the labile chloromethyl ketone reactivity of FLISP reagent.
Fluorescent inhibitors of caspases (FLICA) reagents, namely the fluorescein labeled VAD-FMK (FAM-VAD-FMK) and sulforhodamine labeled VAD-FMK (SR-VAD-FMK) (Immunochemistry Technologies; Bloomington, Minn.) were both designed to detect the presence of active caspases within apoptotic cells. These inhibitors were dissolved in DMSO to obtain a 150× concentrated stock solution. Aliquots of these solutions were stored at −20° C. in the dark. Prior to use, a 30× working solution of either FAM-VAD-FMK or SR-VAD-FMK was prepared by diluting the stock solution 1:5 in phosphate buffered saline (PBS) and mixing until the solution become clear. The 30× working solution was diluted 1:30 cell culture media to give a final 1× working reagent concentration of 10 μM.
Cells: Human promyelocytic leukemic HL-60 cells were obtained from American Type Culture Collection (ATCC; Rockville, Md.). They were cultured in 25 mL FALCON flasks (Becton Dickinson Co., Franklin Lakes, N.J.) using RPMI 1640 supplemented with 10% fetal calf serum, 100 units/mL penicillin, […] and 2 mM L-glutamine (all from Gibco/BRL Life Technologies, Inc., Grand Island, N.Y.) in a humidified incubator set to maintain 37.5° C. and 5% CO2 as previously described (Bedner et al., Exp Cell Res., 2000, 259:308-313; Smolewski et al., Cytometry, 2001, 44:73-82). At the onset of experiments, there were fewer than 5×10^5 cells/ml in culture. To induce apoptosis the cells were treated with 0.15 μM DNA topoisomerase I inhibitor camptothecin (CPT; Sigma Chemical Co., St. Louis, Mo.) for 3 hours.
Cell staining and fluorescence measurement by LSC: The HL-60 cells from the untreated or CPT treated cultures were centrifuged (200 g, 5 min) and resuspended in PBS at approximately 10^4 cells per 5 mL volume. Cells were then attached electrostatically to microscope slides as described before (Bedner et al., Exp Cell Res., 2000, 259:308-313; Smolewski et al., Cytometry, 2001, 44:73-82). The attachment was achieved by the incubation (15 min) of cells suspended in serum-free PBS in shallow (<1 mm depth; 1.5×1.5 cm) wells on horizontally placed microscope slides that were rinsed in 100% ethanol and air dried prior to use, at 100% humidity. The electrostatically attached cells remain viable, exclude such dyes as trypan blue and propidium iodide (PI), and have unchanged morphology for several hours (Bedner et al., Exp Cell Res., 2000, 259:308-313). After the cells became attached, PBS was removed from the wells and was replaced by 150 μL of the culture medium containing 10% FCS. FLISP staining solutions were prepared by diluting 5 μL of the 10 mM FFCK or FLCK stock solution into 5 mL of culture medium yielding a final FLISP concentration 10 μM. […]

HL-60 cells [2] = experiment: Pretreatment of HL-60 cells with unlabeled protease inhibitors during CPT induction of apoptosis; subsequent binding of FAM-VAD-FMK, FFCK or FLCK measured by LSC; type: cell-based, Human; conditions: HL-60, 0.15 μM CPT 3 h, pretreatment with unlabeled inhibitor (Z-VAD-FMK 50 μM); probe 10 μM; mean ± SE of three experiments
Method: as §1
Fluorescent inhibitors of caspases (FLICA) reagents, namely the fluorescein labeled VAD-FMK (FAM-VAD-FMK) and sulforhodamine labeled VAD-FMK (SR-VAD-FMK) (Immunochemistry Technologies; Bloomington, Minn.) were both designed to detect the presence of active caspases within apoptotic cells. These inhibitors were dissolved in DMSO to obtain a 150× concentrated stock solution. Aliquots of these solutions were stored at −20° C. in the dark. […]
Cell staining and fluorescence measurement by LSC: The HL-60 cells from the untreated or CPT treated cultures were centrifuged (200 g, 5 min) and resuspended in PBS at approximately 10^4 cells per 5 mL volume. […]

Substance | binding of the ligand by cells treated with CPT vs untreated (control) cells (HL-60 cells [1]) | fluorescence of labeled cells (appearance) (HL-60 cells [1]) | greater fluorescence intensity of FLCK labeled cells compared to cells labeled with FFCK (HL-60 cells [1]; identical settings of photomultiplier sensitivity) | percent decrease in frequency of FLCK labeled cells vs cells treated with CPT without unlabeled inhibitor (HL-60 cells [2])
5(6)-Carboxyfluoresceinyl-L-phenylalanylchloromethyl ketone [FFCK] | induced binding | strong |  | 
5(6)-Carboxyfluorescyl-L-leucylchloromethyl ketone [FLCK] | induced binding | faint | approximately 60% | 
N-tosyl-L-phenylalanine chloromethyl ketone [TPCK] |  |  |  | 38.9% and 38.9 ± 1.7%
